Experimental findings from PubChem BioAssay (NCI) are described below.

Test in all cases: NCI-60 cell line screen, 48 h
Assay [1] has as its system HOP-62 NSCLC.
In assay [2] the test system is MALME-3M melanoma.
Assay [3] relates to SW-620 colon.
Assay [4] deals with SK-OV-3 ovarian.
In assay [5] the test system is IGROV1 ovarian.
Assay [6] concerns HL-60(TB) leukemia.
The test system of assay [7] is OVCAR-4 ovarian.
Assay [8] relates to NCI-H23 lung.
Assay [9] deals with SK-MEL-2 melanoma.
In assay [10] the test system is HCT-116 colon.
For assay [11], the system named is KM12 colon.
For assay [12], the system named is SN12C renal.
The test system of assay [13] is SK-MEL-28 melanoma.
Assay [14] has as its system MOLT-4 leukemia.
Assay [15] relates to SF-268 CNS.
In assay [16] the test system is SK-MEL-5 melanoma.
Assay [17] relates to CCRF-CEM leukemia.
The test system of assay [18] is NCI-H460 lung.
Assay [19] concerns SNB-75 CNS.
For assay [20], the system named is NCI/ADR-RES ovarian.

The structures appear in SMILES notation.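 These data come from cells grown in 96-well plates and exposed to compound for 48 hours at five concentrations. TGI marks complete inhibition of growth.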

`CC(=O)Nc1ccc(C2=N/C(=C\c3ccc(Cl)c(Cl)c3)C(=O)O2)cc1`: the TGI in assay [1], in [2], in assay [3], in [4], in [5] and in [6] was greater than 100 µM in each case. The TGI in [7], in [8], in [9], in assay [10], in [11] and in assay [12] was greater than 100 µM throughout. Moreover, the TGI in assay [13], in assay [14], in [15], in [16], in assay [17] and in assay [18] was greater than 100 µM each time. The molecule also displayed a TGI in assay [19] greater than 100 µM.

With `CC1C(=O)C(C)C(c2cccs2)N(N=O)C1c1cccs1` (stereo unspecified), the TGI is greater than 100 µM in assay [1]; greater than 19.7 µM in [2]; greater than 100 µM in assay [3]; greater than 100 µM in assay [4]; greater than 100 µM in assay [5]; greater than 100 µM in [6]. Besides, the TGI in assay [7], in assay [8], in assay [9], in assay [20], in assay [10] and in [11] was greater than 100 µM throughout. For the same molecule, the TGI in assay [12], in assay [13], in assay [14], in [15], in assay [16] and in assay [17] was greater than 100 µM in each case. Also, the TGI in [18] was greater than 100 µM; in assay [19], greater than 93 µM.

Take `Nc1ccc2cc(S(=O)(=O)O)cc(O)c2c1N=Nc1ccc(NC(=O)Nc2ccc(N=Nc3c(N)ccc4cc(S(=O)(=O)O)cc(O)c34)c(S(=O)(=O)O)c2)cc1S(=O)(=O)O`: the TGI in assay [1], in assay [2], in assay [3], in assay [4], in [5] and in assay [6] was greater than 100 µM each time. In addition, the TGI in [7], in [8], in assay [9], in assay [20], in assay [10] and in [11] was greater than 100 µM each time. Moreover, the TGI in assay [12], in [13], in assay [14], in assay [15], in [16] and in [17] was greater than 100 µM in each case. Moreover, the TGI in [18] and in [19] was greater than 100 µM each time.

As to `COc1cc(C2C(Cl)C(=O)N2NC(=O)c2ccc(NC(C)=O)cc2)cc(Br)c1O` (stereo unspecified), the TGI in assay [1], in [2], in assay [3], in assay [4], in assay [5] and in [6] was greater than 100 µM in each case. Moreover, the TGI in [8], in assay [9], in [10], in [11], in assay [13] and in assay [14] was greater than 100 µM in each case. Besides, the TGI in assay [15], in assay [16], in assay [17], in [18] and in assay [19] was greater than 100 µM throughout.

Take `COc1ccc(N2C(=O)C3c4[nH]c5ccccc5c4C4CCCCCCCC4C3C2=O)cc1` (stereo unspecified): the TGI in assay [1], in assay [2], in assay [3], in assay [4], in [5] and in assay [6] was greater than 10 µM throughout. The TGI in assay [7], in assay [8], in assay [9], in assay [20], in assay [10] and in assay [11] was greater than 10 µM in each case. Moreover, the TGI in [12] is greater than 10 µM; in assay [13], greater than 10 µM; in assay [14], greater than 10 µM; in assay [15] it was greater than 10 µM; in [16], greater than 10 µM; in assay [17], 8.35 µM. The TGI in [18] and in assay [19] was greater than 10 µM throughout.

On to `CN1C[C@H]2[C@@H](C1=O)[C@H](c1ccc([N+](=O)[O-])cc1)ON2C`, for which the TGI in assay [1], in assay [3], in [4], in assay [5], in assay [6] and in [7] was greater than 100 µM in each case. In addition, the TGI in [8], in assay [9], in assay [20], in assay [10], in [12] and in [13] was greater than 100 µM throughout. Moreover, the TGI in assay [14], in assay [16], in assay [17] and in assay [18] was greater than 100 µM in each case.

Regarding `O=C1ON(Cc2ccccc2)C(c2ccccc2)N1c1ccccc1` (stereo unspecified), the TGI in [1], in assay [2], in [3], in assay [4], in [5] and in [6] was greater than 100 µM each time. For the same molecule, the TGI in assay [7], in assay [8], in assay [9], in assay [20], in assay [10] and in [11] was greater than 100 µM throughout. Also, the TGI in assay [12], in [13], in [14], in assay [15], in assay [16] and in assay [17] was greater than 100 µM in each case. In addition, the TGI in assay [18] and in [19] was greater than 100 µM each time.

In the case of `COc1ccc2c(C)cc(N/N=C/c3sccc3C)nc2c1`, the TGI in assay [1] is 28.4 µM; in assay [2], 20.8 µM; in [3], 69.4 µM; in assay [4], 31.9 µM; in [5], 27.4 µM; in [6], greater than 100 µM. Further, the TGI was greater than 100 µM in assay [7]; 33.1 µM in [8]; 29.8 µM in [9]; 26.2 µM in assay [20]; 16.1 µM in [10]; 21.8 µM in assay [11]. The TGI in assay [12] is 20.4 µM; in assay [13] it was 35.8 µM; in assay [14], 48.6 µM; in assay [15], 85.9 µM; in [16] it was 18.9 µM; in assay [17] it was greater than 100 µM. In assay [19], this molecule registered a TGI of 26.1 µM.
